Measurements reported in patent US20160106439A1, “PNEUMATIC TOURNIQUET” (BIONUMERIK PHARMACEUTICALS, INC., priority 2013, published 2016).

Key:
WT EGFR kinase = WT EGFR kinase (Homo sapiens, UniProt P00533)
[1] = tested on: Stage IV primary adenocarcinoma of the lung; experiment: Tavocept Phase III Clinical Trial (Interim Analysis); type: in vivo, patients
Excerpt: In the Tavocept Phase III Clinical Trial pre-specification was made through stratification factors including sex (i.e., male versus female) and taxane treatment (i.e., paclitaxel versus docetaxel). Eligible patients had not received prior drug treatment for their cancer, and inclusion in the trial was also allowed for patients who had relapsed following surgery for earlier stage disease as well as patients with central nervous system metastasis. A total of 540 patients were enrolled on the trial.
The primary endpoint of this study was overall survival (OS); defined as the time period from the date of patient randomization to the date of death due to any cause.
All patients received standard combination chemotherapy (taxane agent plus cisplatin) and either Tavocept or placebo.
The primary endpoint for analysis was the duration of overall survival, defined as the time from the date of randomization to the date of death due to any cause. The number of mortality events used for the final analysis depended upon the number of patients enrolled into the study (provided the sample size was adjusted at the interim analysis). For the primary analysis, the expected number of total mortality events was approximately 416 mortality events for a sample size of 575 patients.
The one-sided log-rank test was performed in order to allow the application of the adaptive methodology. Details of this 2-stage adaptive design are described below. Kaplan-Meier survival curves (including identification of censored observations) was presented by treatment group, as well as median survival times and their 95% confidence intervals.
The following specific endpoints were evaluated with pre-specified analyses in order to evaluate for potential clinically and statistically significant differences between Tavocept- and placebo-treated patients.
The incidence of cisplatin renal toxicity and anemia, and the impact of emesis on daily life were analyzed using the Cochran-Mantel-Haenszel (CMH) tests for proportions. The CMH test was applied in the comparison between Tavocept and placebo where adjustment for prognostic factors is clinically important (e.g., adjusting for baseline characteristics). To control for Type I error due to multiple comparisons of safety data, a nominal, 2-sided p-value of less than 0.0125 was used for each comparison of renal toxicity, anemia, and emesis.

[2] = Female Non-Smokers receiving paclitaxel and cisplatin
[3] = Females receiving paclitaxel and cisplatin
[4] = Male & Female Non-Smokers receiving paclitaxel and cisplatin

Chain of WT EGFR kinase (P00533 25-1210): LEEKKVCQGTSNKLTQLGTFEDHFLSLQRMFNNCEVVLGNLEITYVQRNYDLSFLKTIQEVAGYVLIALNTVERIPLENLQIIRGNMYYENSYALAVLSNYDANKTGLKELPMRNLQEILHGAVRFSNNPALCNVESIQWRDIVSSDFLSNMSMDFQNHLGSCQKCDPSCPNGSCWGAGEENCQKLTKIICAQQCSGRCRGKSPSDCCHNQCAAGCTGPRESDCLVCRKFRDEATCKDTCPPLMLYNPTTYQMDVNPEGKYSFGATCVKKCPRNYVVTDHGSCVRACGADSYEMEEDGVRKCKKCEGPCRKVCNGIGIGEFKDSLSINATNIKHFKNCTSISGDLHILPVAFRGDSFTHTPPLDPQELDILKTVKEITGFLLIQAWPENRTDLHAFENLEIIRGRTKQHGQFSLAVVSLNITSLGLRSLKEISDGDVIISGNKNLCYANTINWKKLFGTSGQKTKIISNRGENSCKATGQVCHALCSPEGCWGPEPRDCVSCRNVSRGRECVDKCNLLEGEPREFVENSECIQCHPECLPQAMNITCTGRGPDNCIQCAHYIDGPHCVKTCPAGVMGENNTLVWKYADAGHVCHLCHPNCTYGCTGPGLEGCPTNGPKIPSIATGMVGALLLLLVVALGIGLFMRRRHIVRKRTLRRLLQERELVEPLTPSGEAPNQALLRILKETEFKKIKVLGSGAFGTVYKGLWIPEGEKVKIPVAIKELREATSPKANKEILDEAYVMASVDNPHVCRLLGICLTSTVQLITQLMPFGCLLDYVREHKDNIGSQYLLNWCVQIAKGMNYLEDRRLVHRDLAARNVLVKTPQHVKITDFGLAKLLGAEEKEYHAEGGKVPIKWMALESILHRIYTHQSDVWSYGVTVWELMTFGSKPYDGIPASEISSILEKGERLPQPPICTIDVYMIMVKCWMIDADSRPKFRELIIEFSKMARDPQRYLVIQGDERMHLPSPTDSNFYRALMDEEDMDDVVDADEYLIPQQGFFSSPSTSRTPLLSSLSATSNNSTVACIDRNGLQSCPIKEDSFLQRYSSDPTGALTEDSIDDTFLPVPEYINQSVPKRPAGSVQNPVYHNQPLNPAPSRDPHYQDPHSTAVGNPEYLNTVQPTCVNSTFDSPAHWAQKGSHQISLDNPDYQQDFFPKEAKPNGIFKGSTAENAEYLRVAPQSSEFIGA

## O=S(=O)([O-])CCSSCCS(=O)(=O)[O-].[Na+].[Na+] [Tavocept, disodium 2,2′-dithio-bis-ethane sulfonate]
WT EGFR kinase
  inhibition: 9%
[1]; [2]
  Median survival: 27.0 months
  Median survival advantage vs placebo: 13.6 months
[1]; [3]
  Median survival: 25.0 months
  Median survival advantage vs placebo: 11.8 months
[1]; [4]
  Median survival: 25.2 months
  Median survival advantage vs placebo: 12 months
[1]; PS 1 ECOG Performance Status subjects
  Median survival advantage vs placebo: 2.82 months
[1]; PS 1 ECOG females receiving paclitaxel and cisplatin
  Median survival advantage vs placebo: 11.1 months
[1]; PS 1 ECOG males and females receiving paclitaxel and cisplatin
  Median survival advantage vs placebo: 4.0 months
[1]; Stage IV M1b subjects
  Median survival: 11.33 months
[1]; all females receiving paclitaxel and cisplatin
  2-year survival: 51%
[1]; all subjects receiving paclitaxel and cisplatin
  2-year survival: 30%
[1]; all subjects, paclitaxel or docetaxel plus cisplatin, P=0.723
  Overall median survival advantage vs placebo: greater than 2 month
[1]; compared to placebo, P=0.0528
  Protection against chemotherapy-induced kidney toxicity: improvement in the relative creatine decrease from baseline
[1]; compared to the placebo arm
  Anemia: reduced anemia
[1]; female non-smokers receiving paclitaxel and cisplatin
  2-year survival: 72.4%
[1]; female subjects >=65 years receiving paclitaxel and cisplatin
  Median survival advantage vs placebo: 2.1 months
[1]; female subjects receiving paclitaxel plus cisplatin, Newly Diagnosed
  Median survival: 25.0 months
[1]; female subjects receiving paclitaxel plus cisplatin, no subsequent therapy
  Median survival: 14.2 months
[1]; female subjects with CNS Metastases, paclitaxel plus cisplatin, P=0.0343
  Survival vs placebo: Survival advantage in favor of Tavocept
[1]; male and female non-smokers receiving paclitaxel and cisplatin
  2-year survival: 63%
[1]; male and female subjects >=65 years receiving paclitaxel and cisplatin
  Median survival advantage vs placebo: 3.5 months
[1]; male and female subjects receiving paclitaxel plus cisplatin, Newly Diagnosed
  Median survival: 15.3 months
[1]; male and female subjects receiving paclitaxel plus cisplatin, no subsequent therapy
  Median survival: 10.0 months
[1]; patients previously receiving Tavocept, paclitaxel and cisplatin
  Median period of additional survival after starting new chemotherapy, longer than placebo: 3.4 months
[1]; patients receiving post-study new chemotherapy, paclitaxel and cisplatin
  Median overall survival from randomization: 23.0 months
[1]; subjects Newly Diagnosed at enrollment
  Median survival: 14.19 months
[1]; subjects greater than or equal to 65 years of age
  Median survival advantage vs placebo: 3 months
[1]; subjects who received paclitaxel and cisplatin
  Median survival: 15.4 months
[1]; subjects who received paclitaxel and cisplatin instead of docetaxel and cisplatin
  Median survival advantage vs placebo: 3.68 months
[1]; subjects with CNS Metastases present
  Median survival: 11.76 months
[1]; vs 9.2 months placebo
  Overall survival, patients receiving post study therapy: 12.2 months
